{
  "source": "patent US8697407B2",
  "about": "“Compositions and methods for inhibiting MMSET” (The Regents of The University of Michigan, priority 2010, dated 2014)",
  "key": {"multiple cancers": {"system": "multiple cancers", "experiment": "Cell viability (FIGS. 11-26)", "format": "cell-based"}, "DU145 cells [1]": {"system": "DU145 cells", "experiment": "Basement membrane matrix invasion assay", "format": "cell-based", "conditions": "48 hours", "method": "DU145 cells were used for invasion assays. In some experiments, MMSET knockdown was performed by transfecting cells with two different MMSET-specific siRNAs. Forty-eight hours post-transfection, cells were seeded onto the basement membrane matrix (EC matrix, Chemicon, Temecula, Calif.) present in the insert of a 24-well culture plate. In some experiments, MMSET was inhibited using a small molecule inhibitor (MCTP39). Fetal bovine serum was added to the lower chamber as a chemoattractant with or without 2 doses of small molecule inhibitors. After 48 hours, the non-invading cells and EC matrix were gently removed with a cotton swab. Invasive cells located on the lower side of the chamber were measured colorimetrically by treating with 150 μl of 10% acetic acid and the absorbance measured at 560 nm using a spectrophotometer."}, "xenograft tumors": {"system": "xenograft tumors", "experiment": "Xenograft tumors", "conditions": "in vivo"}, "DU145 cells [2]": {"system": "DU145 cells", "experiment": "WST-1 cell viability assay", "format": "cell-based", "method": "In order to test the activity of MMSET inhibitors on cell viability, a WST-1 cell viability assay (Roche) was performed. The aggressive prostate cell line DU145 was treated with different doses of small molecules dissolved in DMSO for 96 hours before performing the WST-1 assay according to manufacturer's protocol. Each experiment was performed 8 times and absorbance was measured at 450 nm."}, "[3]": {"system": "histone H3 methylation in DU145 cells", "experiment": "Immunoblot analyses of histone H3 methylation modifications", "format": "cell-based", "method": "DU145 cells were incubated with multiple doses of small molecule inhibitors for 96 hours or were subjected to siRNA-mediated MMSET knockdown as described herein (e.g., using sh1 GGUCCAAAGUGUCGGGUUA or sh2 GUCAGUGGAGGAGCGGAA). Cells were homogenized in NP40 lysis buffer (50 mM Tris-HCl, 1% NP40, pH 7.4, Sigma, St. Louis, Mo.) with Complete proteinase inhibitor mixture (Roche, Indianapolis, Ind.). Ten micrograms of each protein extract were boiled in sample buffer, separated by SDS-PAGE, and transferred onto Polyvinylidene Difluoride membrane (GE Healthcare). The membrane was incubated for one hour in blocking buffer and incubated overnight at 4° C. with the following antibodies: anti-mono, di, and trimethylated H3-27, anti-di and trimethylated H3-k36, and anti-trimethylated H3-K9. Following a wash with TBS-T, the blot was incubated with horseradish peroxidase-conjugated secondary antibody. Signals were visualized by enhanced chemiluminescence as described by the manufacturer (GE Healthcare). The blots were re-probed with anti-H3 and β-actin for confirmation of equal loading."}, "[4]": {"system": "translocation positive MM cell lines", "experiment": "Specificity in MM cell lines", "format": "cell-based"}},
  "note": "pIC50: −log10 of the molar value. “Also recorded” adds a separate entry of the source. Like-named read-outs stand apart in the source and are kept apart here.",
  "data": [
    {"smiles": "NNc1nc2ccccc2nc1S", "note": "[MCTP39, 3-hydrazinylquinoxaline-2-thiol]", "values": [
      {"measurement": "cell viability", "setting": "multiple cancers", "value": "decreased"},
      {"measurement": "invasion of DU145 cells", "setting": "DU145 cells [1]", "value": "affected proliferation and invasion of DU145 cells even at very low concentration"},
      {"measurement": "tumor size / tumor volume in xenograft tumors", "setting": "xenograft tumors", "value": "decreased; also recorded: reduces tumor volume"},
      {"measurement": "proliferation of DU145 cells", "setting": "DU145 cells [2]", "value": "affected proliferation and invasion of DU145 cells even at very low concentration"},
      {"measurement": "pIC50", "setting": "DU145 cells [2]; Homo sapiens, DU-145, 96 hours, WST-1", "value": "> 5.52"},
      {"measurement": "H3K27 trimethylation", "setting": "[3]", "value": "dose-dependent decreased"},
      {"measurement": "H3K36 dimethylation", "setting": "[3]", "value": "dose-dependent decreased"},
      {"measurement": "H3K36 trimethylation", "setting": "[3]", "value": "dose-dependent decreased"},
      {"measurement": "H3K27 dimethylation", "setting": "[3]; 96 hours", "value": "dose-dependent decreased"},
      {"measurement": "H3K27 trimethylation", "setting": "[3]; listed as N39", "value": "reduced"},
      {"measurement": "H3K36 dimethylation", "setting": "[3]; listed as N39", "value": "reduced"},
      {"measurement": "H3K36 trimethylation", "setting": "[3]; listed as N39", "value": "reduced"},
      {"measurement": "specificity toward translocation positive MM cell lines", "setting": "[4]", "value": "shows specificity toward translocation positive MM cell lines"}
    ]}
  ]
}
